Type in all cases: functional
Test [1] concerns Staphylococcus epidermidis. As to the kind of experiment: Antibacterial activity against methicillin sensitive Staphylococcus epidermidis ATCC 12228.
Test [2] relates to Staphylococcus epidermidis. In words: Antibacterial activity against methicillin sensitive Staphylococcus epidermidis 17-13.
The subject of test [3] is Staphylococcus epidermidis. As to the kind of experiment: Antibacterial activity against methicillin resistant Staphylococcus epidermidis 19-1.
Test [4] deals with Staphylococcus epidermidis. As to the kind of experiment: Antibacterial activity against methicillin resistant Staphylococcus epidermidis 19-2.
Test [5] has as its system Staphylococcus aureus. As to the kind of experiment: Antibacterial activity against methicillin sensitive Staphylococcus aureus ATCC 29213.
The test system of test [6] is Staphylococcus aureus. As to the kind of experiment: Antibacterial activity against methicillin sensitive Staphylococcus aureus 15.
In test [7] the test system is Staphylococcus aureus. In words: Antibacterial activity against methicillin resistant Staphylococcus aureus 20-11.
Test [8] deals with Staphylococcus aureus. As to the kind of experiment: Antibacterial activity against methicillin resistant Staphylococcus aureus ATCC 43300.
Test [9] relates to Staphylococcus aureus. As to the kind of experiment: Antibacterial activity against vancomycin intermediate and methicillin resistant Staphylococcus aureus ATCC 700698.
Test [10] deals with Staphylococcus aureus. As to the kind of experiment: Antibacterial activity against vancomycin intermediate and methicillin resistant Staphylococcus aureus ATCC 700699.
Test [11] deals with Staphylococcus aureus. In words: Antibacterial activity against methicillin sensitive Staphylococcus aureus 20-12.
Test [12] concerns Staphylococcus aureus. In words: Antibacterial activity against methicillin sensitive Staphylococcus aureus ATCC 33591.
Test [13] has as its system Staphylococcus aureus. In words: Antibacterial activity against methicillin resistant Staphylococcus aureus 18-2.
For test [14], the system named is Enterococcus faecalis. In words: Antibacterial activity against Vanomycin-resistant Enterococcus faecalis ATCC 51299.
For test [15], the system named is Enterococcus faecalis. As to the kind of experiment: Antibacterial activity against Vanomycin-resistant Enterococcus faecalis ATCC 51575.
Test [16] deals with Enterococcus faecium. In words: Antibacterial activity against Vanomycin-resistant Enterococcus faecium ATCC 700221.
Test [17] concerns Enterococcus faecium. In words: Antibacterial activity against Vanomycin-resistant Enterococcus faecium ATCC 51559.
For test [18], the system named is Enterococcus faecium. As to the kind of experiment: Antibacterial activity against Vanomycin-resistant Enterococcus faecium 15-6.

Structures are written as SMILES. Values after ≈ are worked out from the molar mass of the structure shown. Active and inactive are the calls of the source. The calls are words filed in the database; no cut-off is given here.

What is called MIC is the least concentration at which growth counts as inhibited. Consider `CNC(=O)c1cc(Oc2ccc(N3CCN(c4ccc(Cl)c(C(F)(F)F)c4)C3=O)cc2)ccn1`, for which the MIC result (in test [1]; in [2]; in [3]; in [4]; with Staphylococcus aureus [5]; in the test with Staphylococcus aureus [6]) was “inactive” throughout. The MIC result in the test on Staphylococcus aureus [7], in the test with Staphylococcus aureus [8], in the test on Staphylococcus aureus [9] and with Staphylococcus aureus [10] was “inactive” throughout.

For the compound `O=C(Nc1ccc(OC(F)F)cc1)Nc1ccc(Cl)c(C(F)(F)F)c1`, the MIC in test [1] turned out to be 10.5 µM (≈ 4 µg/mL); in test [2], 2.63 µM (≈ 1 µg/mL); in test [3], 5.25 µM (≈ 2 µg/mL); in test [4] it was 10.5 µM (≈ 4 µg/mL); in the test with Staphylococcus aureus [5] it was 10.5 µM (≈ 4 µg/mL); against Staphylococcus aureus [6], 0.66 µM (≈ 0.251 µg/mL). In addition, the MIC in the test on Staphylococcus aureus [7] was determined as 0.66 µM (≈ 0.251 µg/mL); in the test on Staphylococcus aureus [8] it was 10.5 µM (≈ 4 µg/mL); against Staphylococcus aureus [9] it was 1.31 µM (≈ 0.499 µg/mL); in the test with Staphylococcus aureus [10], 0.66 µM (≈ 0.251 µg/mL); against Staphylococcus aureus [11] it was 10.5 µM (≈ 4 µg/mL); in the test on Staphylococcus aureus [12] it was 10.5 µM (≈ 4 µg/mL). Further, the MIC in the test with Staphylococcus aureus [13] stood at 5.25 µM (≈ 2 µg/mL); in the test with Enterococcus faecium [16], 21 µM (≈ 8 µg/mL); in the test with Enterococcus faecium [17] it was 21 µM (≈ 8 µg/mL); with Enterococcus faecium [18], 21 µM (≈ 8 µg/mL). The MIC entry in the test with Enterococcus faecalis [14] and in the test with Enterococcus faecalis [15] was “inactive” throughout.

Regarding `O=C(Nc1ccc(Cl)c(F)c1)Nc1ccc(Cl)c(C(F)(F)F)c1`, the MIC in test [1] came out at 2.72 µM (≈ 0.999 µg/mL); in test [2], 2.72 µM (≈ 0.999 µg/mL); in test [3], 1.36 µM (≈ 0.499 µg/mL); in test [4] it was 1.36 µM (≈ 0.499 µg/mL); against Staphylococcus aureus [5] it was 2.72 µM (≈ 0.999 µg/mL); in the test with Staphylococcus aureus [6] it was 2.72 µM (≈ 0.999 µg/mL). The minimal inhibitory concentration (MIC) was 2.72 µM (≈ 0.999 µg/mL) in the test with Staphylococcus aureus [7]; 2.72 µM (≈ 0.999 µg/mL) in the test with Staphylococcus aureus [8]; 2.72 µM (≈ 0.999 µg/mL) in the test with Staphylococcus aureus [9]; 1.36 µM (≈ 0.499 µg/mL) with Staphylococcus aureus [10]; 2.72 µM (≈ 0.999 µg/mL) with Staphylococcus aureus [11]; 1.36 µM (≈ 0.499 µg/mL) with Staphylococcus aureus [12]. Moreover, the MIC is 2.72 µM (≈ 0.999 µg/mL) in the test with Staphylococcus aureus [13]; 21.8 µM (≈ 8 µg/mL) against Enterococcus faecalis [14]; 10.9 µM (≈ 4 µg/mL) against Enterococcus faecalis [15]; 5.45 µM (≈ 2 µg/mL) with Enterococcus faecium [16]; 10.9 µM (≈ 4 µg/mL) against Enterococcus faecium [17]; 10.9 µM (≈ 4 µg/mL) in the test on Enterococcus faecium [18].

For the compound `CN(C(=O)Nc1cccc(Cl)c1F)c1ccc(Cl)c(C(F)(F)F)c1`, the MIC entry (in [1]; in [2]; in test [3]; in [4]; in the test with Staphylococcus aureus [5]; in the test on Staphylococcus aureus [6]) was “inactive” each time. Moreover, the MIC result in the test on Staphylococcus aureus [7], with Staphylococcus aureus [8], in the test on Staphylococcus aureus [9], in the test on Staphylococcus aureus [10], in the test on Staphylococcus aureus [11] and in the test with Staphylococcus aureus [12] was “inactive” each time. In the test with Staphylococcus aureus [13], the MIC entry was “inactive”.

Take `O=C(Nc1ccc2c(c1)OCO2)Nc1ccc(Cl)c(C(F)(F)F)c1`: the MIC in test [1] came out at 22.3 µM (≈ 8 µg/mL); in test [2] it was 22.3 µM (≈ 8 µg/mL); in [3], 22.3 µM (≈ 8 µg/mL); in [4] it was 22.3 µM (≈ 8 µg/mL); in the test on Staphylococcus aureus [5], 44.6 µM (≈ 16 µg/mL); in the test on Staphylococcus aureus [6] it was 22.3 µM (≈ 8 µg/mL). Moreover, the MIC in the test on Staphylococcus aureus [7] worked out at 44.6 µM (≈ 16 µg/mL); in the test with Staphylococcus aureus [8] it was 357 µM (≈ 128 µg/mL); against Staphylococcus aureus [9] it was 44.6 µM (≈ 16 µg/mL); against Staphylococcus aureus [10], 22.3 µM (≈ 8 µg/mL).

On to `CNC(=O)c1cc(Oc2ccc(NC(=O)N3CCN(c4ccc(Cl)c(C(F)(F)F)c4)C3=O)cc2)ccn1`, for which the MIC result (in test [1]; in [2]; in test [3]; in test [4]; in the test with Staphylococcus aureus [5]; with Staphylococcus aureus [6]) was “inactive” in each case. Also, the MIC entry in the test on Staphylococcus aureus [7], in the test with Staphylococcus aureus [8], in the test with Staphylococcus aureus [9], in the test on Staphylococcus aureus [10], with Staphylococcus aureus [11] and in the test on Staphylococcus aureus [12] was “inactive” in each case. The MIC result with Staphylococcus aureus [13] is “inactive”.

In the case of `CNC(=O)c1cc(Oc2ccc(NC(=O)Nc3cc(C(F)(F)F)ccc3Cl)cc2)ccn1`, the MIC result (in test [1]; in [2]; in test [3]; in [4]; with Staphylococcus aureus [5]; with Staphylococcus aureus [6]) was “inactive” in each case. The MIC result with Staphylococcus aureus [7], in the test on Staphylococcus aureus [8], with Staphylococcus aureus [9] and with Staphylococcus aureus [10] was “inactive” throughout.

As to `CNC(=O)c1cc(Oc2ccc(NC(=O)Nc3cc(C(F)(F)F)ccc3OC)cc2)ccn1`, the MIC result (in [1]; in [2]; in test [3]; in test [4]; in the test on Staphylococcus aureus [5]; with Staphylococcus aureus [6]) was “inactive” in each case. Also, the MIC entry in the test on Staphylococcus aureus [7], with Staphylococcus aureus [8], in the test on Staphylococcus aureus [9] and in the test on Staphylococcus aureus [10] was “inactive” each time.

Turning to `COc1ccc(NC(=O)Nc2ccc(Cl)c(C(F)(F)F)c2)cc1`, the MIC result (in test [1]; in test [2]; in test [3]; in test [4]; in the test on Staphylococcus aureus [5]; in the test on Staphylococcus aureus [6]) was “inactive” each time. In addition, the MIC result with Staphylococcus aureus [7], in the test on Staphylococcus aureus [8], with Staphylococcus aureus [9] and in the test on Staphylococcus aureus [10] was “inactive” in each case.

In the case of `CN(C(=O)Nc1ccc(Cl)c(C(F)(F)F)c1)c1cccc(Cl)c1F`, the MIC result (in [1]; in test [2]; in [3]; in [4]; in the test with Staphylococcus aureus [5]; with Staphylococcus aureus [6]) was “inactive” each time. Also, the MIC entry with Staphylococcus aureus [7], in the test on Staphylococcus aureus [8], with Staphylococcus aureus [9], in the test with Staphylococcus aureus [10], in the test on Staphylococcus aureus [11] and in the test with Staphylococcus aureus [12] was “inactive” in each case. For the same compound, the MIC entry with Staphylococcus aureus [13] is “inactive”.

As to `CNC(=O)c1cc(Oc2ccc(NC(=O)Nc3cccc(C(F)(F)F)c3)cc2)ccn1`, the MIC (in test [1]; in test [3]; against Staphylococcus aureus [6]) was 149 µM (≈ 64 µg/mL) in each case. Further, the MIC entry (in test [2]; in test [4]; in the test on Staphylococcus aureus [5]; with Staphylococcus aureus [7]; with Staphylococcus aureus [8]; in the test on Staphylococcus aureus [9]) was “inactive” throughout. Also, the MIC result in the test on Staphylococcus aureus [10] was “inactive”.

For `O=C1N(c2ccc(O)cc2)CCN1c1ccc(Cl)c(C(F)(F)F)c1`, the MIC entry (in test [1]; in [2]; in [3]; in [4]; with Staphylococcus aureus [5]; in the test with Staphylococcus aureus [6]) was “inactive” in each case. Moreover, the MIC result in the test on Staphylococcus aureus [7], in the test on Staphylococcus aureus [8], with Staphylococcus aureus [9] and with Staphylococcus aureus [10] was “inactive” each time.

The values above are taken from ChEMBL document CHEMBL5223117, “Synthesis and biological evaluation of novel N, N'-diarylurea derivatives as potent antibacterial agents against MRSA” (Bioorg Med Chem Lett, 2022).
